Test results reported in PMC9409043, “Serotonin 5-HT6 Receptor Ligands and Butyrylcholinesterase Inhibitors Displaying Antioxidant Activity—Design, Synthesis and Biological Evaluation of Multifunctional Agents against Alzheimer’s Disease” (International Journal of Molecular Sciences, 2022).
Several values for one entry are separate records, joined by “and”; a condition that tells them apart may be missing. Equal values may be shown once.

How the values were obtained:
human 5-HT6 receptor = molecular target: T1, human 5-HT6 receptor (Homo sapiens, UniProt P50406); test: 5-HT6 receptor radioligand binding assay ([3H]-LSD, CHO-K1 membranes)
T1 construct: purchased PerkinElmer; host or cells: CHO-K1 cells, stably transfected (membrane preparation)
Procedure: 5-HT6R binding affinity and cholinesterase (AChE/BuChE) inhibitory activity. We evaluated the pharmacological properties of the final compounds 12–19 in vitro according to the previously described, well-established protocols. Their affinities for recombinant human 5-HT6 receptors (h5-HT6R) were tested in a radioligand binding assay and the inhibitory potencies against human recombinant AChE (hAChE) and BuChE isolated from human plasma (hBuChE) in the spectrophotometric Ellman’s assay. […].
We prepared 10 mM of stock solutions of tested compounds in DMSO. Serial dilutions of compounds were prepared in a 96-well microplate in assay buffers using the automated pipetting system epMotion 5070 (Eppendorf). Each compound was tested in 8 concentrations from 10^−5 to 10^−12 M (final concentration).
The radioligand binding assay was performed using membranes from CHO-K1 cells stably transfected with the human 5-HT6 receptor (PerkinElmer) according to the previously described procedure. All assays were carried out in duplicates. We prepared 50 µL working solution of the tested compounds, 50 µL [^3H]-LSD (final concentration 2.5 nM) and 150 µL diluted membranes (15 µg protein per well) in assay buffer (50 mM Tris, pH 7.4, 10 mM MgCl2, 0.1 mM EDTA) and transferred them to polypropylene 96-well microplates using a 96-well pipetting station Rainin Liquidator (MettlerToledo). Methiothepin (10 μM) was used to define nonspecific binding. The microplate was covered with sealing tape, mixed and incubated for 60 min at 27 °C. The reaction was terminated by rapid filtration through GF/B filter mate presoaked with 0.5% polyethyleneimine for 30 min. Ten rapid washes with 200 µL 50 mM Tris buffer (4 °C, pH 7.4) were performed using the automated harvester system Harvester-96 MACH III FM (Tomtec). The filter mates were dried at 37 °C in a forced air fan incubator and then solid scintillator MeltiLex was melted on filter mates at 90 °C for 5 min. Radioactivity was counted in MicroBeta2 scintillation counter (PerkinElmer). Data were fitted to a one-site curve-fitting equation with Prism 6 (GraphPad Software) and Ki values were estimated from the Cheng−Prusoff equation.

[1] = molecular target: T2, human recombinant AChE (hAChE) (Homo sapiens, UniProt P22303); test: biochemical; conditions: for IC50: mean ± SEM of at least three experiments
T2 construct: purchased Sigma-Aldrich (Steinheim, Germany)
Procedure: (§1) 5-HT6R binding affinity and cholinesterase (AChE/BuChE) inhibitory activity. […] Their affinities for recombinant human 5-HT6 receptors (h5-HT6R) were tested in a radioligand binding assay and the inhibitory potencies against human recombinant AChE (hAChE) and BuChE isolated from human plasma (hBuChE) in the spectrophotometric Ellman’s assay.
(§2) The assay was based on spectrophotometric Ellman’s method and was performed in 96-well microplates with the reagents purchased from Sigma-Aldrich (Steinheim, Germany) according to the previously described procedure. hBuChE was kindly donated by Vivonics (Bedford, MA, USA). […] After 5 minutes of the enzymatic reaction, the changes in absorbance were measured at 412 nm, using a microplate reader (SPECTROstar Nano; BMG Labtech, Ortenberg, Germany). First, compounds were tested at the screening concentration of 10 µM. Based on the equation 100 − (S/B) × 100 (where S and B were the respective enzyme activities with and without the test sample, respectively) the percentage inhibition of each enzyme for each compound was calculated. […] The IC50 values were calculated using nonlinear regression (GraphPad Prism 5; GraphPad Software, San Diego, CA, USA) by plotting the residual enzyme activities against the applied inhibitor concentration. […] All experiments were performed in triplicate.

[2] = molecular target: T3, BuChE isolated from human plasma (hBuChE) (Homo sapiens, UniProt P06276); test: biochemical; type: biochemical; conditions: for IC50: mean ± SEM of at least three experiments
T3 construct: BuChE isolated from human plasma (hBuChE); tissue Vivonics (Bedford, MA, USA), donated; host or cells: human plasma
Procedure: as §1, §2

[3] = ABTS free radical scavenging assay
Description: Antioxidant activity. As mentioned before, oxidative stress is one of the components of AD pathomechanism and is characterised by an imbalance in the production of ROS. One of the mechanisms by which antioxidants reduce the concentration of ROS and therefore prevent or slow the cell damage caused by free radicals is scavenging them. Thus, we tested the scavenging ability of compounds 12–19 in the spectrophotometric ABTS assay that we used before. In this assay, the ability of compounds to scavenge ABTS^• radicals, which are generated from 2,2’-azino-bis(3-ethylbenzothiazoline-6-sulphonic acid) (ABTS), is measured. We tested the compounds at three concentrations: 30, 75 and 150 μM after 5, 30 and 60 min of incubation using Trolox, a water-soluble vitamin E analogue, as a reference (Table S1 in Supporting information).
The spectrophotometric ABTS assay was performed in 96-well microplates with the reagents purchased from Sigma-Aldrich (Steinheim, Germany) according to the previously described procedure. Stock solutions of the tested compounds (6.4 mM) and reagents were prepared in DMSO and water, respectively. 2,2′-Azino-bis(3-ethylbenzothiazoline-6-sulfonic acid) free radical (ABTS^•) was prepared by mixing the stock solution of ABTS (7 mM) and […] (2.45 mM) in ratio 1:1. The mixture was kept in the dark at 4 °C for 16 h. The obtained solution of (ABTS^•) was diluted with water 20 times. Then, the test compound or water or mixture of DMSO/water in the appropriate ratio (0.02 mL) was added to ABTS^• solution (0.18 mL). The three concentrations of the test compounds and Trolox were tested in triplicate: 0.15, 0.075 and 0.03 mM. Changes in absorbance were measured at 734 nm after 5, 30 and 60 min, using a microplate reader (SPECTROstar Nano; BMG Labtech, Ortenberg, Germany). Based on the equation ((A0 − A)/A0) × 100% (where A0 and A were the absorbances without and with the test compound, respectively) the percentage of free radical scavenging activity was calculated. The results are presented as mean ± SD.

[4] = Metabolic stability in human liver microsomes; type: in vitro ADME; conditions: for HLMs % Left: human, 2 h, pH 7.4
Procedure: Metabolic stability. […] For detailed results, including UPLC chromatograms and MS spectra, see the Supporting information (Figures S1–S16).
The metabolic stability was evaluated by incubation of compounds with human liver microsomes (Sigma-Aldrich, St. Louis, MO, USA) in 10 mM Tris–HCl buffer (pH 7.4) at 37 °C for 120 min in the presence of NADPH Regeneration System (Promega, Madison, WI, USA). The percentage of the remaining substrate and the most probable metabolic pathways were estimated by UPLC-MS analyses of the reaction mixtures.

[5] = Metabolic stability in mouse liver microsomes; type: in vitro ADME; conditions: 2 h, pH 7.4
CYP2D6 = molecular target: T4, CYP2D6 (Homo sapiens, UniProt P10635); test: CYP P450-Glo luminescence assay, CYP2D6; type: in vitro ADME
T4 construct: purchased Promega, Madison, WI, USA
Description: Influence on CYP3A4 and CYP2D6 activity. Possible drug–drug interactions (DDIs) are an important issue for elderly patients, who are usually on multiple medications. They may result, among other things, from the interactions (inhibition or activation) of the cytochrome P450 isoenzymes, especially CYP3A4 and CYP2D6, which play the most significant role in drugs’ biotransformation. Therefore, to predict the potential influence of the studied compounds (14, 16 and 19) on the metabolism of other drugs, we used the CYP450 inhibition luminescence assay (Promega). […]. […] […]. […] […].
The influence on CYP 3A4 and 2D6 activity was estimated by respective luminescent CYP P450-Glo™ assay (Promega®, Madison, WI, USA). The compounds were tested in the concentration range of 0.1–25 µM. The results were compared to the respective reference CYP inhibitors: ketoconazole and quinidine.

[6] = system: patients with moderate Alzheimer’s dementia; conditions: phase II, adjunct to cholinesterase inhibitors, moderate Alzheimer’s dementia ref 14, 15; cited from earlier work

T3 sequence (P06276 29-602): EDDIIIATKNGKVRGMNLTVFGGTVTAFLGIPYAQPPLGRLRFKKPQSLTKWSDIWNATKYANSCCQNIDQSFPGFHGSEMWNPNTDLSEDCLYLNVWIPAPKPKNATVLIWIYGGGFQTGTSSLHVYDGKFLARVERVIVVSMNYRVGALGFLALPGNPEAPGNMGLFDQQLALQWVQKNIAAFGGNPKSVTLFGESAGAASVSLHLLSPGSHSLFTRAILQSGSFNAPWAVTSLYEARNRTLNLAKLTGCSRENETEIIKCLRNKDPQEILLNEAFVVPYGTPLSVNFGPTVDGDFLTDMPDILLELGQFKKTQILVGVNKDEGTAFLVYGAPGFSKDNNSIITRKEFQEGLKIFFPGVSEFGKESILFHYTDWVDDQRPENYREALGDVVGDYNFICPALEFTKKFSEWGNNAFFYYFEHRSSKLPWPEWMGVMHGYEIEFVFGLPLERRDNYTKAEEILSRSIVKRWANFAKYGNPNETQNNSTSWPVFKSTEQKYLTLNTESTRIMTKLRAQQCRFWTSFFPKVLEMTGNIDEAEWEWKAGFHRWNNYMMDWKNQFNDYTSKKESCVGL
T1 sequence (P50406 whole entry): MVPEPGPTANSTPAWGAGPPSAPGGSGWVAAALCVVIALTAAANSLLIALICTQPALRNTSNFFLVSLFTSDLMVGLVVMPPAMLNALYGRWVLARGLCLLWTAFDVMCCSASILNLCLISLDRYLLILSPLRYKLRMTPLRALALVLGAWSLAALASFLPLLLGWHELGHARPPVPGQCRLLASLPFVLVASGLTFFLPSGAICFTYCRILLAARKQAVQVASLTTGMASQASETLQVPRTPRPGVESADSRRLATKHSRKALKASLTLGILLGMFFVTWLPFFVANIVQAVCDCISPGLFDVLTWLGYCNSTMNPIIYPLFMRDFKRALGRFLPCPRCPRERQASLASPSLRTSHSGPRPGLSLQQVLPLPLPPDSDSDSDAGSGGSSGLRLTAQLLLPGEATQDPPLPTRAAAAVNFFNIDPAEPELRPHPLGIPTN
T4 sequence (P10635 whole entry): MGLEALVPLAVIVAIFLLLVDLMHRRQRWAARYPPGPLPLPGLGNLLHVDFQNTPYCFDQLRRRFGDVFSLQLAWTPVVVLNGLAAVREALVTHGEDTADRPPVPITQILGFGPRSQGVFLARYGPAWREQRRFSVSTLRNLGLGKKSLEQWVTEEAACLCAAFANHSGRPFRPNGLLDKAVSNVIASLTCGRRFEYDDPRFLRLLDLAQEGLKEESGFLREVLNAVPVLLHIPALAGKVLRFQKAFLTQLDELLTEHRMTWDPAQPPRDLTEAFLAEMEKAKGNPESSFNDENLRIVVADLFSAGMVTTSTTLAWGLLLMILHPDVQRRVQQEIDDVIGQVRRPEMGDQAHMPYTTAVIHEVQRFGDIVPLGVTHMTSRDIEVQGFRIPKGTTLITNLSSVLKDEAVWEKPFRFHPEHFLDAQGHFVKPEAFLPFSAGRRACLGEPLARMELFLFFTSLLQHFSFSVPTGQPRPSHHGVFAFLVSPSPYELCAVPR
T2 sequence (P22303 32-614): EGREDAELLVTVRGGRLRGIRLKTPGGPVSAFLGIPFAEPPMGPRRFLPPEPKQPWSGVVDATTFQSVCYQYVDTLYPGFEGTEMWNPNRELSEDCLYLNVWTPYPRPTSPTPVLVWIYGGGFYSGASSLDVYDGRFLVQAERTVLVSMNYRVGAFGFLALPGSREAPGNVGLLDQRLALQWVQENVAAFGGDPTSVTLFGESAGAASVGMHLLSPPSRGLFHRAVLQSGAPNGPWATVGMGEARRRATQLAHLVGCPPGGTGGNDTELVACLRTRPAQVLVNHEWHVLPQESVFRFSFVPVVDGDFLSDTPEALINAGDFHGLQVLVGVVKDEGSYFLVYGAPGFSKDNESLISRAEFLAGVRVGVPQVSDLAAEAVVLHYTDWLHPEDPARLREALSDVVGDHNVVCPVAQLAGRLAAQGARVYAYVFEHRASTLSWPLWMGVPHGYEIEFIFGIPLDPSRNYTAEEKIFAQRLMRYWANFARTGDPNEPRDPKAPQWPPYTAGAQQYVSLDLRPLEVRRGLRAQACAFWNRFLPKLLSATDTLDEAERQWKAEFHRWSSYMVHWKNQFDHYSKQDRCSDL

SMILES | Ki (human 5-HT6 receptor) | IC50 [1] | IC50 [2] | % of ABTS• reduction ± SD ([3]; 30 µM, 5 min) | % of ABTS• reduction ± SD ([3]; 30 µM, 30 min) | % of ABTS• reduction ± SD ([3]; 30 µM, 60 min) | % of ABTS• reduction ± SD ([3]; 75 µM, 5 min) | % of ABTS• reduction ± SD ([3]; 75 µM, 30 min) | % of ABTS• reduction ± SD ([3]; 75 µM, 60 min) | % of ABTS• reduction ± SD ([3]; 150 µM, 5 min) | % of ABTS• reduction ± SD ([3]; 150 µM, 30 min) | % of ABTS• reduction ± SD ([3]; 150 µM, 60 min) | other results
O=c1[nH]c2c(OCCNCCCC3CCN(Cc4ccccc4)CC3)cccc2n1Cc1ccccc1 [Compound 19, 1-Benzyl-4-(2-((3-(1-benzylpiperidin-4-yl)propyl)amino)ethoxy)-1,3-dihydro-2H-benzo[d]imidazol-2-one] | 0.48 ± 0.048 µM | 0.544 ± 0.015 µM | 0.613 ± 0.011 µM | 10±0% | 17±0% | 22±1% | 14±1% | 24±2% | 30±2% | 25±4% | 37±5% | 43±4% | main metabolic pathway [4]: oxidative deamination; HLMs % Left [4]: 94.00%; MLMs % Left [5]: 79.38%; influence on the activity of CYP2D6 (CYP2D6; 0.1 µM): did not influence the activity of CYP2D6; influence on the activity of CYP2D6 (CYP2D6; 1 µM): CYP2D6-activating effect
O=S(=O)(c1ccccc1)n1ccc2c(OCCNCC3CCN(Cc4ccccc4)CC3)cccc21 [Compound 12, N-((1-Benzylpiperidin-4-yl)methyl)-2-((1-(phenylsulfonyl)-1H-indol-4-yl)oxy)ethan-1-amine] | 0.021 ± 0.001 µM | 3.15 ± 0.081 µM | 2.3 µM and 2.33 µM | 8±1% | 9±0% | 10±0% | 13±0% | 19±0% | 24±1% | 20±3% | 30±3% | 39±4% | –
O=c1[nH]c2c(OCCNCC3CCN(Cc4ccccc4)CC3)cccc2n1Cc1ccccc1 [Compound 17, 1-Benzyl-4-(2-(((1-benzylpiperidin-4-yl)methyl)amino)ethoxy)-1,3-dihydro-2H-benzo[d]imidazol-2-one] | 0.136 ± 0.022 µM | – | – | 8±2% | 14±3% | 18±4% | 12±2% | 22±2% | 27±1% | 19±2% | 32±2% | 39±2% | inhibition at 10 µM ([1]; 10 µM concentration): 39.5%; inhibition at 10 µM ([2]; 10 µM concentration): 44.3%
O=S(=O)(c1ccccc1)N1CCc2c(OCCNCCCC3CCN(Cc4ccccc4)CC3)cccc21 [Compound 16, 3-(1-Benzylpiperidin-4-yl)-N-(2-((1-(phenylsulfonyl)indolin-4-yl)oxy)ethyl)propan-1-amine] | 0.598 ± 0.019 µM | 0.821 ± 0.014 µM | 0.487 ± 0.012 µM | 7±0% | 7±1% | 7±1% | 7±2% | 9±2% | 11±3% | 10±0% | 19±1% | 24±1% | main metabolic pathway [4]: oxidative deamination; HLMs % Left [4]: 84.40%; MLMs % Left [5]: 84.48%; inhibition at 0.1 µM (CYP2D6; human, CYP2D6 enzyme in the luminescent P450-Glo assay (Promega), 0.1 µM): ~20%
O=S(=O)(c1ccccc1)c1cnc2c(N3CCNCC3)cccc2c1 [intepirdine] | – | – | – | – | – | – | – | – | – | – | – | – | effects on cognition [6]: positive effects on cognition
O=S(=O)(c1ccccc1)n1ccc2c(OCCNCCC3CCN(Cc4ccccc4)CC3)cccc21 [Compound 13, 2-(1-Benzylpiperidin-4-yl)-N-(2-((1-(phenylsulfonyl)-1H-indol-4-yl)oxy)ethyl)ethan-1-amine] | 0.017 ± 0.002 µM | 2.26 ± 0.091 µM | 1.11 ± 0.031 µM | 5±1% | 5±1% | 6±1% | 9±1% | 11±1% | 13±1% | 20±0% | 29±1% | 34±1% | –
Fc1ccc2c(CCNCc3cccc(OCC(F)(F)C(F)F)c3)c[nH]c2c1 [Idalopirdine] | – | – | – | – | – | – | – | – | – | – | – | – | effects on cognition [6]: positive effects on cognition
Cc1c(C)c2c(c(C)c1O)CCC(C)(C(=O)O)O2 (centres unmarked) [Trolox, reference compound] | – | – | – | 59±2% | 59±2% | 59±2% and 59% | 100±0% | 100±0% | 100% | 100±0% | 100±0% | 100±0% and 100% | –
